Series [1] concerns SCD1 protein production in SZ95-SCD1-HiBit cells. Briefly: Measurement of SCD1 expression in SZ95-SCD1-HiBit cells (HiBiT assay). Particulars: Homo sapiens. Type of series: cell-based. Here is the method: SZ95-SCD1-HiBit cells were seeded in 384-well cell culture white plates at a density of 3000 cells/30 ul. Water is added to edge wells to avoid evaporation. Cells were incubated in a humidified incubator with 5% CO2 at 37° C. overnight. Tested compounds were diluted at a ratio of 1:3 using Agilent BRAVO Automated Liquid Handling Platform and added to cells at final concentrations starting from 18 μM. Compound H was used as a reference compound in each plate. Cells in the assay plate were incubated in a humidified incubator with 5% CO2 at 37° C. for 48h.
The assay plates were removed from the incubator and allowed to equilibrate to room temperature. Nano-Glo® HiBiT Detection Reagent (Promega; a mixture of Nano-Glo HiBiT Detection Buffer, Nano-Glo HiBiT Detection Substrate, and LgBiT protein) was added into assay plates, at a volume equal to cell culture medium in each well. Plates were placed on an orbital shaker at a speed of 300-600 rpm for 10 min at room temperature, and read on an EnVision Plate Reader using luminescence detection with a 1 second read time.
The assay measures the increase in SCD1 protein production in vitro. Amax refers to the percent […] of the tested compound compared to the reference compound.
(The HiBiT peptide binds its large partner to form an active luciferase.)

Series [2] concerns SZ95 (immortalized human sebaceous gland cells) cells. Briefly: Sentinel lipid assay (desaturation index in SZ95 sebocytes). Type of series: cell-based. Here is the method:
SZ95 (immortalized human sebaceous gland cells) cells were seeded in Greiner bio-one 96-well polypropylene plates that were pre-treated with 50 μg/ml Human Plasma Fibronectin (Thermo Fisher Scientific) at a density of 10^4 cells/135 μl. Cells were incubated in a humidified incubator with 5% CO2 at 37° C. overnight. Test compounds were diluted at a ratio of 1:3 and added to cells at final concentrations starting from 10 μM. Compound H was used as a positive control reference compound in each plate. Cells in the assay plate were incubated in a humidified incubator with 5% CO2 at 37° C. for 72h.
Culture medium was removed from the cells and cells in culture plates were washed with ice cold phosphate buffered saline three times. Plates were heat sealed and stored in a −80° C. freezer prior to Sentinel lipid assay.
Sentinel lipid assay: The sentinel lipid assay was used quantify the change in the global desaturation index in SZ95 sebocytes upon administration of LXR agonist compounds. The assay measures a smaller subset of lipid analytes in […] (termed “sentinel lipids”) which would model the global changes the population of both saturated and desaturated lipids in the cells. In order to define this smaller subset of lipids, a complete lipid profile was recorded on dose response curves (eight levels from 4 nM to 10 uM) of Compounds A-N. An elastic net regression model was applied separately to both the saturated and desaturated lipids to determine the minimum combination of coefficients and analytes which could be used to adequately model the total population of lipids. The elastic net model was able to reduce the behavior of 425 lipids to 11 lipids and the correlation between the desaturation indices observed using the complete set of lipids with from the 11 sentinel lipids was 0.96.
A medium throughput assay was created using this reduced set of sentinel lipids. A single batch is defined as triplicate examples of three unique plates (i.e., a single batch of cells is used to create nine plates for LC-MSMS analysis). Lipids were extracted from the cells using a 1:1 mixture of methylene chloride/methanol containing 10 nM of deuterated standards of triglycerides, which are used as internal standards for quantitating the lipid abundance. The lipids were separated prior to mass spectrometric analysis using a five minute HPLC gradient. The abundance of the sentinel lipids and the internal standards are measured using multiple reaction monitor mode (MRM) on a triple quadrupole mass spectrometer. The data was transformed from total ion current to nmoles/10^6 cells, which are multiplied by the coefficients from the elastic net model to determine the effective desaturated and saturated content, and therein the desaturation index of the dosed cells. In order to compare compounds from multiple batches with one another, the measure raw desaturation index was normalized by dividing it by the desaturation index of the DMSO dosed cells, and all data was assessed as the fraction by which the compound increases the desaturation index above 1. The Amax value refers to the percent […] of the tested compound compared to the reference compound.

The nature of series [3]: Eyelid pharmacokinetics: compound concentration in rabbit meibomian gland. The class given is in vivo. As to the method:
A formulation of 1% Compound G as a suspension in a suitable vehicle was administered to rabbits as follows. Animals were sedated and the eyelashes and hair on both eyes on both lids trimmed as short as possible. Thirty microliters of the 1% Compound G was drawn up into a pipette and carefully pipetted around the entire eyelid of the animal a few millimeters back from the edge of the lid so as to prevent the material from leaking onto the eye itself. Following application, a cotton swab or eye spear was used to gently try and massage the material into the skin. At the appropriate time points, the animals were euthanized and meibomian glands removed and the concentration of the compound in meibomian glands was measured. The experiment was conducted in triplicate and the results below illustrate mean concentration in nM.

In the case of `CCOC(=O)Cn1nc(C(F)(F)F)cc1-c1ccc(-c2cccc(S(C)(=O)=O)c2)cc1` [Compound G, ethyl 2-(5-(3′-(methylsulfonyl)-[1,1′-biphenyl]-4-yl)-3-(trifluoromethyl)-1H-pyrazol-1-yl)acetate], the EC50 (as a rule, the concentration that produces a half-maximal response) in series [1] (SZ95-SCD1-HiBit cells, 48h incubation, top concentration 18 μM) is 111 nM; in series [2] (SZ95 cells, 72h incubation, top concentration 10 μM, desaturation index, read-out: SLA EC50) it was 243 nM. In addition, the Emax in series [1] (percent compared to the reference compound (Compound H), 48h, read-out: HiBit Amax) stood at 70.7%; in series [2] (percent compared to the reference compound (Compound H), 72h, read-out: SLA Amax), 98.8%. Besides, the “Uptake into the meibomian gland” value in series [3] (1% suspension on eyelid, in words) is “sustained for at least six hours”. In addition, in series [3] (meibomian gland, topical, 0.5 h, 30 microliters of 1% suspension applied to eyelid, triplicate), the concentration at 0.5 h is 2630 nM. Further, the concentration at 3 h in series [3] (meibomian gland, topical, 3 h, 30 microliters of 1% suspension applied to eyelid, triplicate) turned out to be 3780 nM. Besides, the concentration at 6 h in series [3] (meibomian gland, topical, 6 h, 30 microliters of 1% suspension applied to eyelid, triplicate) turned out to be 1050 nM.

The values above are taken from patent US20220257596A1, “METHODS FOR TREATING MEIBOMIAN GLAND DYSFUNCTION WITH LIVER X RECEPTOR AGONISTS” (Novartis AG, priority 2019, published 2022).
